Test results from patent EP1946758A1, “Treatment of acute myeloid leukemia” (PIERRE FABRE MEDICAMENT, priority 2007, dated 2008).

Legend:
[1] = Stability in water (D2O solution followed by proton NMR); type: physicochemical; conditions: room temperature; for change in the NMR spectrum: 3 mg/ml
Experimental: Sodium triptolide succinate was dissolved in D2O, and the aqueous solution was stored at room temperature.
Stability in Water: a solution of sodium triptolide succinate in D2O can be prepared at a concentration of 3 mg/ml and stored at room temperature. The solution can be analyzed by ^1H NMR at intervals of 1, 3, 5, 15, 45, 90, 180 minutes; 1, 7, 14 days; and 1, 2, 3, and 5 months.

[2] = test system: relapsed or refractory acute myeloid leukemia; assay: Exploratory dose escalation treatment of patients with relapsed or refractory leukemias; type: in vivo
Experimental: PG490-88 Na is a 14-succinyl triptolide sodium salt of triptolide (PG490).
In this example, 29 patients with relapsed or refractory leukemias were treated. Median age was 57 years (range : 30 - 79). Sixty two percent of patients were male. Twelve dose levels from 0.150 to 13 mg/m^2/day were tested in one patient each, with an increase by 50% for each successive cohort of patients until one dose limiting toxicity (DLT) was observed. Thereafter, dose escalation was switched to a standard design using cohorts of 3 to 6 patients per dose level, with 30% dose increments.
Among all the patients, 6 […] presented with a disease refractory to standard induction chemotherapy and the others were in 1st or 2nd relapse who had failed salvage therapy for 9 of them. […]

[3] = Stability in blood serum (hydrolysis followed by TLC); type: in vitro ADME; conditions: rat serum, 37°C
Experimental: The stability of triptolide succinate in blood serum was determined. In this study, a solution of triptolide succinate (the free acid of the sodium triptolide succinate) in DMSO was mixed with rat serum and incubated at 37°C. The mixture was assayed periodically by thin layer chromatography (TLC) to follow the hydrolysis of the triptolide succinate over time. […] After 15 minutes, the triptolide succinate spot was gone and a new spot corresponding to triptolide had appeared (Rf =0.60). Finally, after 45 minutes, the triptolide spot had also disappeared, and only low Rf material (blood serum components and decomposition products) remained.
Stability in Blood Serum: a solution of triptolide succinate (free acid) in DMSO can be made at a concentration of 25 mg/ml, and 0.1 ml of this solution can be mixed with 0.5 ml of rat serum. The mixture was incubated at 37°C. Aliquots of the mixture should then be taken at 1, 3, 5, 15, 45 minutes and 18 hours and analyzed by thin layer chromatography (TLC). The TLC plates can be developed in 1:5 CH2Cl2/Et2O. After development, the plates can be treated with iodine vapor and examined under a UV lamp. Triptolide and triptolide succinate can be used as reference compounds (Rf =0.60, and 0.45, respectively).
After 15 minutes, the triptolide succinate spot may be gone (Rf =0.45), and a new spot corresponding to triptolide may have appeared (Rf =0.60). After 45 minutes, the triptolide spot may also disappear, and only low Rf material (blood serum components and decomposition products) may remain.

[4] = patients with relapsed or refractory leukemias
[5] = recommended dose of 5.7 mg/m^2/day

Molecule: CC(C)[C@]12O[C@H]1[C@@H]1O[C@]13[C@]1(O[C@H]1C[C@H]1C4=C(CC[C@@]13C)C(=O)OC4)[C@@H]2OC(=O)CCC(=O)[O-].[Na+] [PG490-88 Na, 14-succinyl triptolide sodium salt]
- change in the NMR spectrum ([1]; after 5 months): Some decomposition
- change in the NMR spectrum ([1]; during the first three months): No appreciable change
- stability in aqueous solution (proton NMR spectra) ([1]; after five months): some decomposition
- stability in aqueous solution (proton NMR spectra) ([1]; after three months): unchanged
- cerebellar toxicity, patients ([2]; 7 mg/m^2/day (one grade 2 and two grade 4)): 3 patients
- cerebellar toxicity, patients ([2]; 8.5 mg/m^2/day (two grade 4)): 2 patients
- response ([2]; another patient, 8.5 mg/m^2/day, after 2 cycles of treatment): CRp: complete remission without full platelets recovery
- cerebellar toxicity, patients ([2]; doses > 5.7 mg/m^2/day): 5 patients
- overall response on relapsed or refractory acute myeloid leukemia ([2]; exploratory dose escalation experiments): very good response
- response ([2]; one patient, 5.7 mg/m^2/day, day 15 of the treatment, one cycle): complete remission (CR) with pancytopenia
- haematological toxicity ([2]; patient with CRp, 8.5 mg/m^2/day, after cycle 2): no haematological toxicity
- haematological toxicity ([2]; patient with CRp, 8.5 mg/m^2/day, after the first cycle): grade 4 aplasia lasting 20 days
- maximum tolerated dose (MTD) [2, 4]: 7 mg/m^2/day
- recommended dose for this regimen [2, 4]: 5.7 mg/m^2/day
- grade 3 leucopenia (related adverse event), patients [2, 5]: 1 patient
- other related adverse events [2, 5]: mild diarrhoea, nausea and vomiting
- haematological toxicity ([2]; third patient (complete remission), 8.5 mg/m^2/day, after the first cycle): moderate leucopenia (grade 1 lasting 2 days)
- haematological toxicity ([2]; third patient (complete remission), 8.5 mg/m^2/day, during the second cycle): no haematotoxicity
- response ([2]; third patient, 8.5 mg/m^2/day, after 2 cycles of treatment): complete remission

Molecule: Triptolide Succinate
- time for hydrolysis in serum to release free triptolide [3]: less than an hour
- species detected by TLC ([3]; after 3 minutes): only triptolide succinate may be detected
- triptolide succinate spot (Rf =0.45) by TLC ([3]; after 15 minutes): gone
- triptolide succinate spot (Rf =0.45) by TLC ([3]; within the first 3 to 5 minutes): most of the triptolide succinate remained
